This is an account of results in patent US20260250257A1, “ANTIBACTERIAL AND SYNERGISTIC ACTIVE COMPOUND AND USE THEREOF” (EAST CHINA UNIVERSITY OF SCIENCE AND TECHNOLOGY, priority 2023, published 2026).

Assay [1] relates to ATCC25922 strain (Escherichia coli). Put plainly: Checkerboard antibacterial synergistic activity test with polymyxin E (FIC). In kind it is cell-based. Also on record: key: FIC≤0.5 synergy; 0.5–1 additive; 1–2 indifferent; ≥2 antagonism. To be noted: combined with polymyxin E. In short, it runs like this: (§1)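 Polymyxin E was diluted in MH broth to 16–0.015 μg/ml and the test compound to 256–4 μg/ml (two-fold series, pre-mixing concentrations), combined checkerboard-style in 96-well plates with bacterial suspension and blank controls, and incubated at 37° C. for 16 h. FIC ≤0.5 was scored synergistic, >0.5 to <1 additive, 1–2 indifferent, ≥2 antagonistic.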

Assay [2] relates to ATCC19606 strain (Acinetobacter baumannii). The description is as above. Format: cell-based. Also on record: key: FIC≤0.5 synergy; 0.5–1 additive; 1–2 indifferent; ≥2 antagonism. To be noted: combined with polymyxin E. In short, it runs like this:
as §1

Assay [3] deals with ATCC9027 strain (Pseudomonas aeruginosa). Described as above. Format: cell-based. Also on record: key: FIC≤0.5 synergy; 0.5–1 additive; 1–2 indifferent; ≥2 antagonism. The conditions noted are these: combined with polymyxin E. The method in brief: as §1
In assay [4] the test system is ATCC13883 strain (Klebsiella pneumoniae). The assay is described as above. Format: cell-based. Also on record: key: FIC≤0.5 synergy; 0.5–1 additive; 1–2 indifferent; ≥2 antagonism. To be noted: combined with polymyxin E. In short, it runs like this:
as §1

The subject of assay [5] is ATCC19606 strains (Acinetobacter baumannii). Description: In vivo synergistic bactericidal activity with polymyxin E, mouse bacteremia model. Also on record: species or system Balb/c mice. To be noted: for survival rate / synergistic effects with Polymyxin E in vivo: Polymyxin E 0.5 mg/kg + compound 16 mg/kg, Balb/c mice infected with ATCC19606; for survival rate: intraperitoneal. As for the experimental part:
Representative compounds I-14 and I-82 were tested for their in vivo synergistic bactericidal activities when combined with polymyxin E. The specific method is as follows:
Normal Balb/c mice (6-8 weeks old) were used, and the animals were randomly divided into four groups (5 mice per group): • I: Control group • II: Polymyxin E at 0.5 mg/kg body weight • III: Polymyxin E at 0.5 mg/kg body weight+Compound I-14 at 16 mg/kg • IV: Polymyxin E at 0.5 mg/kg body weight+Compound I-82 at 16 mg/kg
Freshly cultured ATCC19606 strains (logarithmic growth phase) were washed with saline, adjusted to an OD600 of ~1.0, and mixed at 1:1 (v/v) with 10% porcine mucin. Each mouse was intraperitoneally administered 500 μl of the mixture. 1 hour later, an intraperitoneal injection was given again, with the control group receiving only saline.

The test system of assay [6] is ATCC25922 strain (Escherichia coli). Put plainly: Broth microdilution, antibacterial activity of the compound used alone. Format: cell-based. To be noted: for MIC: read-out: Antibacterial activity of the compound of Formula I, ATCC25922. The source says: (§2) The broth microdilution method was used to test the antibacterial effects of the compounds of the present invention against various Gram-negative bacterial strains when used alone.

Assay [7] has as its system ATCC19606 strain (Acinetobacter baumannii). Described as above. In kind it is cell-based. To be noted: for MIC: read-out: Antibacterial activity of the compound of Formula I, ATCC19606.
From the text: as §2

In assay [8] the test system is ATCC9027 strain (Pseudomonas aeruginosa). Described as above. In kind it is cell-based. To be noted: for MIC: read-out: Antibacterial activity of the compound of Formula I, ATCC9027.
From the text: as §2

The subject of assay [9] is ATCC13883 strain (Klebsiella pneumoniae). The assay is described as above. In kind it is cell-based. To be noted: for MIC: read-out: Antibacterial activity of the compound of Formula I, ATCC13883.
From the text: as §2

The test system of assay [10] is clinical strains of Acinetobacter baumannii. Description: Synergistic effect (FIC) on inhibiting clinical strains of Acinetobacter baumannii. Format: cell-based. To be noted: for FIC: with polymyxin E. As for the experimental part: Polymyxin E was diluted in sterile MH broth medium to concentrations of 16, 8, 4, 2, 1, 0.5, 0.25, 0.125, 0.0625, 0.031, and 0.015 μg/ml, and the drug to be tested was diluted to concentrations of 256, 128, 64, 32, 16, 8, and 4 μg/ml. According to the checkerboard method, combinations of the drug to be tested and polymyxin at different concentrations in ascending order were placed into a 96-well plate, and corresponding blank control groups were set up. 50 μl of the drug solution was added to each well, then 100 μl of bacterial liquid was added, and incubated in a 37° C. incubator for 16 hours. […] Calculation and judgment criteria:
Fractional Inhibitory Concentration (FIC) is calculated as follows: […]
Judgment criteria: FIC≤0.5: synergistic effect; 0.5<FIC<1: additive effect; 1<FIC<2: indifferent effect; FIC≥2: antagonistic effect.
(§3) Compound I-82 of the present invention was used as the representative compound and tested against clinical strains of Acinetobacter baumannii. […] The selected A. baumannii strains were isolated from hospital clinical samples and preserved in the laboratory for research purposes.

Assay [11] has the same test system. Description: MIC of polymyxin E against polymyxin E-resistant clinical strains. Format: cell-based.
From the text: as §3

≈ marks a conversion by molar mass, not a printed value.

In the case of `CC(C)(C)c1cc(-c2csc(N=C(N)N)n2)cc(C(C)(C)C)c1O` [Compound I-14], the “Synergistic activity (FIC value) ATCC25922” value in assay [1] was 0.38. The “Synergistic activity (FIC value) ATCC19606” value in [2] is recorded as 0.13. In addition, the “Synergistic activity (FIC value) ATCC9027” value in assay [3] is listed as 0.53. The “Synergistic activity (FIC value) ATCC13883” value in [4] is 0.31. The survival rate in [5] (Day 5) came out at 80%. Moreover, the “synergistic effects with Polymyxin E in vivo” value in [5] is “synergistic effects”. The MIC in [6], in [7], in assay [8] and in assay [9] was 256 µg/mL (≈ 739 µM) throughout.

With `Cc1ccc(Oc2ccccc2-c2csc(N=C(N)N)n2)c(C)c1` [Compound I-82], in assay [1], the “Synergistic activity (FIC value) ATCC25922” value turned out to be 0.18. For the same compound, the “Synergistic activity (FIC value) ATCC19606” value in [2] was 0.03. The “Synergistic activity (FIC value) ATCC9027” value in assay [3] was determined as 0.28. In [4], the “Synergistic activity (FIC value) ATCC13883” value is reported as 0.16. For the same compound, the survival rate entry in assay [5] (Day 5) is listed as “above 60%”. For the same compound, the “synergistic effects with Polymyxin E in vivo” value in [5] was “synergistic effects”. For the same compound, the “Synergistic effects against clinical strains of A. baumannii” value in assay [10] (clinical strains with various resistance profiles) is on record as “broad-spectrum synergistic effects”. Also, the FIC in assay [10] (strain aba 30) worked out at 0.08; in assay [10] (strain aba 39 (polymyxin E-resistant)), 0.13; in assay [10] (strain aba 1611), 0.09; in assay [10] (strain aba 1613), 0.13; in assay [10] (strain aba 1617) it was 0.08; in assay [10] (strain aba 1638), 0.02. The FIC in [10] (strain aba 1645) was 0.16; in assay [10] (strain aba 4201) it was 0.09; in assay [10] (strain aba 4230), 0.06; in [10] (strain aba 6359), 0.09; in assay [10] (strain aba 6380), 0.14; in assay [10] (strain aba 6382), 0.09. The FIC in assay [10] (strain aba 6410) worked out at 0.06; in assay [10] (strain aba mia) it was 0.05; in [10] (strain aba pmrA (polymyxin E-resistant)), 0.16. Further, the MIC in [6], in assay [7], in [8] and in [9] was 256 µg/mL (≈ 756 µM) in each case.

Take `Cc1ccc(NC(=O)Nc2cccc(-c3c[nH]c(N=C4NCCCN4)n3)c2)c(C)c1` [Compound I-199]: in assay [1], the “Synergistic activity (FIC value) ATCC25922” value is 0.51. The “Synergistic activity (FIC value) ATCC19606” value in assay [2] was determined as 0.16. Further, the “Synergistic activity (FIC value) ATCC9027” value in assay [3] was 0.75. The “Synergistic activity (FIC value) ATCC13883” value in assay [4] came to 0.51. In [6], the “Antibacterial activity of the compound of Formula I, ATCC25922” value was 256 µg/mL. Further, the “Antibacterial activity of the compound of Formula I, ATCC19606” value in assay [7] turned out to be 256 µg/mL. The “Antibacterial activity of the compound of Formula I, ATCC9027” value in assay [8] came to 256 µg/mL. Besides, in [9], the “Antibacterial activity of the compound of Formula I, ATCC13883” value is 256 µg/mL.

On to `O=C(Nc1cccc(-c2coc(N=C3NCCCN3)n2)c1)Nc1ccc(Cl)cc1Cl` [Compound I-200], for which, in [1], the “Synergistic activity (FIC value) ATCC25922” value came to 1.25. For the same compound, the “Synergistic activity (FIC value) ATCC19606” value in assay [2] is 0.25. In assay [3], the “Synergistic activity (FIC value) ATCC9027” value was found to be 0.53. Also, the “Synergistic activity (FIC value) ATCC13883” value in assay [4] is on record as 0.53. Moreover, in [6], the “Antibacterial activity of the compound of Formula I, ATCC25922” value turned out to be 256 µg/mL. In addition, in [7], the “Antibacterial activity of the compound of Formula I, ATCC19606” value was 256 µg/mL. Further, in assay [8], the “Antibacterial activity of the compound of Formula I, ATCC9027” value was determined as 256 µg/mL. In addition, in assay [9], the “Antibacterial activity of the compound of Formula I, ATCC13883” value came to 256 µg/mL.

As to polymyxin E, in assay [5] (Polymyxin E alone 0.5 mg/kg, Day 5, all mice died), the “therapeutic effect on bacteremia in mice” value is given as “no therapeutic effects”. For the same compound, the MIC in [11] (strain aba39) is 64 µg/mL; in assay [11] (strain aba pmrA), 256 µg/mL.
